Assay results as given in the supplement of paper PMC9663587.

Experiments:
THZ1 = compound: CN(C)C/C=C/C(=O)Nc1ccc(C(=O)Nc2cccc(Nc3ncc(Cl)c(-c4c[nH]c5ccccc45)n3)c2)cc1 [THZ1]; assay: GR value, 72 h; higher = faster growth (1 = untreated, <0 = killing);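 further: breast cancer and non-malignant breast epithelial lines, nine half-log doses, viable cells counted by Hoechst and LIVE/DEAD dye imaging versus time-zero plates and DMSO controls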
BSJ-03-123 = compound: CC(=O)c1c(C)c2cnc(Nc3ccc(N4CCN(CCOCCOCCOCCNC(=O)COc5cccc6c5C(=O)N(C5CCC(=O)NC5=O)C6=O)CC4)cn3)nc2n(C2CCCC2)c1=O [BSJ-03-123]; assay: as above
[1] = compound: CCN1CCN(Cc2ccc(Nc3ncc(F)c(-c4cc(F)c5nc(C)n(C(C)C)c5c4)n3)nc2)CC1; assay: as above
LEE011/Ribociclib [2] = compound: T1, CN(C)C(=O)c1cc2cnc(Nc3ccc(N4CCNCC4)cn3)nc2n1C1CCCC1 [LEE011/Ribociclib]; assay: as above
[3] = compound: CC(=O)c1c(C)c2cnc(Nc3ccc(N4CCNCC4)cn3)nc2n(C2CCCC2)c1=O; assay: as above
Neratinib/HKI272 = compound: CCOc1cc2ncc(C#N)c(Nc3ccc(OCc4ccccn4)c(Cl)c3)c2cc1NC(=O)/C=C/CN(C)C [Neratinib/HKI272]; assay: as above
Flavopiridol [4] = compound: T2, CN1CC[C@H](c2c(O)cc(O)c3c(=O)cc(-c4ccccc4Cl)oc23)[C@H](O)C1 [Flavopiridol]; assay: as above
[5] = compound: CCc1cnn2c(NCc3ccc[n+]([O-])c3)cc(N3CCCC[C@H]3CCO)nc12; assay: as above
[6] = compound: CCN1CCN(Cc2ccc(Nc3ncc(F)c(-c4cc(F)c5nc(C)n(C(C)C)c5c4)n3)nc2)CC1; assay: increase in dead-cell fraction, 72 h; higher = more death;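 further: breast cancer cell lines in 384-well plates, stained with Hoechst plus LIVE/DEAD far red dye and imaged, cells above an LDR intensity threshold counted dead, Hoechst-negative corpses included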
LEE011/Ribociclib [7] = compound: T1, LEE011/Ribociclib; assay: as above
[8] = compound: CC(=O)c1c(C)c2cnc(Nc3ccc(N4CCNCC4)cn3)nc2n(C2CCCC2)c1=O; assay: as above
Flavopiridol [9] = compound: T2, Flavopiridol; assay: as above

Q: Which GR value (THZ1; 0.0001 µM) does the source give for SUM185PE here?
A: 1.02 GR

Q: What about the GR value (THZ1; 0.0003162 µM) of the same cell line?
A: 0.945 GR

Q: And the GR value (THZ1; 0.001 µM)?
A: 1.02 GR

Q: And the GR value (THZ1; 0.003162 µM)?
A: 0.734 GR

Q: What about the GR value (THZ1; 0.01 µM) of the same cell line?
A: 0.855 GR

Q: And the GR value (THZ1; 0.03162 µM)?
A: -0.061 GR

Q: What about the GR value (THZ1; 0.1 µM) of the same cell line?
A: 0.0851 GR

Q: What about the GR value (THZ1; 0.3162 µM) of the same cell line?
A: 0.0061 GR

Q: And the GR value (THZ1; 1 µM)?
A: -0.203 GR

Q: What about the GR value (BSJ-03-123; 0.001 µM) of the same cell line?
A: 0.901 GR

Q: And the GR value (BSJ-03-123; 0.003162 µM)?
A: 0.946 GR

Q: What about the GR value (BSJ-03-123; 0.01 µM) of the same cell line?
A: 0.906 GR

Q: What about the GR value (BSJ-03-123; 0.03162 µM) of the same cell line?
A: 0.922 GR

Q: And the GR value (BSJ-03-123; 0.1 µM)?
A: 0.819 GR

Q: What about the GR value (BSJ-03-123; 0.3162 µM) of the same cell line?
A: 0.776 GR

Q: And the GR value (BSJ-03-123; 1 µM)?
A: 0.799 GR

Q: What about the GR value (BSJ-03-123; 3.162 µM) of the same cell line?
A: 0.758 GR

Q: And the GR value (BSJ-03-123; 10 µM)?
A: 0.649 GR

Q: And the GR value ([1]; 0.001 µM)?
A: 0.941 GR

Q: And the GR value ([1]; 0.003162 µM)?
A: 0.871 GR

Q: And the GR value ([1]; 0.01 µM)?
A: 0.877 GR

Q: And the GR value ([1]; 0.03162 µM)?
A: 0.874 GR

Q: What about the GR value ([1]; 0.1 µM) of the same cell line?
A: 0.742 GR

Q: And the GR value ([1]; 0.3162 µM)?
A: 0.691 GR

Q: What about the GR value ([1]; 1 µM) of the same cell line?
A: 0.613 GR

Q: And the GR value ([1]; 3.162 µM)?
A: 0.595 GR

Q: What about the GR value ([1]; 10 µM) of the same cell line?
A: 0.5 GR

Q: What about the GR value (LEE011/Ribociclib [2]; 0.001 µM) of the same cell line?
A: 0.867 GR

Q: And the GR value (LEE011/Ribociclib [2]; 0.003162 µM)?
A: 1.04 GR

Q: What about the GR value (LEE011/Ribociclib [2]; 0.01 µM) of the same cell line?
A: 0.798 GR

Q: And the GR value (LEE011/Ribociclib [2]; 0.03162 µM)?
A: 0.942 GR

Q: And the GR value (LEE011/Ribociclib [2]; 0.1 µM)?
A: 1 GR

Q: And the GR value (LEE011/Ribociclib [2]; 0.3162 µM)?
A: 0.948 GR

Q: And the GR value (LEE011/Ribociclib [2]; 1 µM)?
A: 0.913 GR

Q: What about the GR value (LEE011/Ribociclib [2]; 3.162 µM) of the same cell line?
A: 0.832 GR

Q: And the GR value (LEE011/Ribociclib [2]; 10 µM)?
A: 0.846 GR

Q: And the GR value ([3]; 0.0003162 µM)?
A: 1 GR

Q: And the GR value ([3]; 0.001 µM)?
A: 1.03 GR

Q: What about the GR value ([3]; 0.003162 µM) of the same cell line?
A: 0.956 GR

Q: What about the GR value ([3]; 0.01 µM) of the same cell line?
A: 0.996 GR

Q: What about the GR value ([3]; 0.03162 µM) of the same cell line?
A: 0.96 GR

Q: And the GR value ([3]; 0.1 µM)?
A: 0.923 GR

Q: And the GR value ([3]; 0.3162 µM)?
A: 0.781 GR

Q: And the GR value ([3]; 1 µM)?
A: 0.86 GR

Q: What about the GR value ([3]; 3.162 µM) of the same cell line?
A: 0.754 GR

Q: And the GR value (Neratinib/HKI272; 0.0003162 µM)?
A: 0.996 GR

Q: What about the GR value (Neratinib/HKI272; 0.001 µM) of the same cell line?
A: 1.05 GR

Q: What about the GR value (Neratinib/HKI272; 0.003162 µM) of the same cell line?
A: 0.979 GR

Q: What about the GR value (Neratinib/HKI272; 0.01 µM) of the same cell line?
A: 0.808 GR

Q: What about the GR value (Neratinib/HKI272; 0.03162 µM) of the same cell line?
A: 0.839 GR

Q: And the GR value (Neratinib/HKI272; 0.1 µM)?
A: 0.681 GR

Q: What about the GR value (Neratinib/HKI272; 0.3162 µM) of the same cell line?
A: 0.595 GR

Q: And the GR value (Neratinib/HKI272; 1 µM)?
A: 0.476 GR

Q: What about the GR value (Neratinib/HKI272; 3.162 µM) of the same cell line?
A: 0.267 GR

Q: And the GR value (Flavopiridol [4]; 0.0001 µM)?
A: 1 GR

Q: And the GR value (Flavopiridol [4]; 0.0003162 µM)?
A: 0.883 GR

Q: What about the GR value (Flavopiridol [4]; 0.001 µM) of the same cell line?
A: 0.776 GR

Q: What about the GR value (Flavopiridol [4]; 0.003162 µM) of the same cell line?
A: 0.933 GR

Q: And the GR value (Flavopiridol [4]; 0.01 µM)?
A: 0.845 GR

Q: And the GR value (Flavopiridol [4]; 0.03162 µM)?
A: 0.58 GR

Q: And the GR value (Flavopiridol [4]; 0.1 µM)?
A: 0.632 GR

Q: What about the GR value (Flavopiridol [4]; 0.3162 µM) of the same cell line?
A: 0.458 GR

Q: And the GR value (Flavopiridol [4]; 1 µM)?
A: 0.132 GR

Q: And the GR value ([5]; 0.0001 µM)?
A: 1.06 GR

Q: What about the GR value ([5]; 0.0003162 µM) of the same cell line?
A: 1.2 GR

Q: And the GR value ([5]; 0.001 µM)?
A: 1.04 GR

Q: And the GR value ([5]; 0.003162 µM)?
A: 0.999 GR

Q: And the GR value ([5]; 0.01 µM)?
A: 0.955 GR

Q: And the GR value ([5]; 0.03162 µM)?
A: 0.387 GR

Q: What about the GR value ([5]; 0.1 µM) of the same cell line?
A: 0.227 GR

Q: What about the GR value ([5]; 0.3162 µM) of the same cell line?
A: 0.203 GR

Q: And the GR value ([5]; 1 µM)?
A: 0.171 GR

Q: And the “increase in dead-cell fraction” value ([6]; 0.001 µM)?
A: -0.0051

Q: What about the “increase in dead-cell fraction” value ([6]; 0.003162 µM) of the same cell line?
A: 0.0054

Q: And the “increase in dead-cell fraction” value ([6]; 0.01 µM)?
A: 0.0159

Q: And the “increase in dead-cell fraction” value ([6]; 0.03162 µM)?
A: 0.0271

Q: And the “increase in dead-cell fraction” value ([6]; 0.1 µM)?
A: 0.0298

Q: And the “increase in dead-cell fraction” value ([6]; 0.3162 µM)?
A: 0.0411

Q: And the “increase in dead-cell fraction” value ([6]; 1 µM)?
A: 0.0307

Q: And the “increase in dead-cell fraction” value ([6]; 3.162 µM)?
A: 0.0469

Q: What about the “increase in dead-cell fraction” value ([6]; 10 µM) of the same cell line?
A: 0.04

Q: What about the “increase in dead-cell fraction” value (LEE011/Ribociclib [7]; 0.001 µM) of the same cell line?
A: -0.0065

Q: And the “increase in dead-cell fraction” value (LEE011/Ribociclib [7]; 0.003162 µM)?
A: -0.0157

Q: What about the “increase in dead-cell fraction” value (LEE011/Ribociclib [7]; 0.01 µM) of the same cell line?
A: -0.0081

Q: What about the “increase in dead-cell fraction” value (LEE011/Ribociclib [7]; 0.03162 µM) of the same cell line?
A: -0.0009

Q: What about the “increase in dead-cell fraction” value (LEE011/Ribociclib [7]; 0.1 µM) of the same cell line?
A: -0.0246

Q: And the “increase in dead-cell fraction” value (LEE011/Ribociclib [7]; 0.3162 µM)?
A: -0.0198

Q: And the “increase in dead-cell fraction” value (LEE011/Ribociclib [7]; 1 µM)?
A: -0.0191

Q: And the “increase in dead-cell fraction” value (LEE011/Ribociclib [7]; 3.162 µM)?
A: -0.0045

Q: And the “increase in dead-cell fraction” value (LEE011/Ribociclib [7]; 10 µM)?
A: 0.0009

Q: What about the “increase in dead-cell fraction” value ([8]; 0.0003162 µM) of the same cell line?
A: 0.0082

Q: And the “increase in dead-cell fraction” value ([8]; 0.001 µM)?
A: 0.0038

Q: And the “increase in dead-cell fraction” value ([8]; 0.003162 µM)?
A: 0.0174

Q: And the “increase in dead-cell fraction” value ([8]; 0.01 µM)?
A: -0.0044

Q: What about the “increase in dead-cell fraction” value ([8]; 0.03162 µM) of the same cell line?
A: -0.0035

Q: And the “increase in dead-cell fraction” value ([8]; 0.1 µM)?
A: 0.0063

Q: What about the “increase in dead-cell fraction” value ([8]; 0.3162 µM) of the same cell line?
A: 0.02

Q: What about the “increase in dead-cell fraction” value ([8]; 1 µM) of the same cell line?
A: 0.0086

Q: And the “increase in dead-cell fraction” value ([8]; 3.162 µM)?
A: 0.0015

Q: And the “increase in dead-cell fraction” value (Flavopiridol [9]; 0.0001 µM)?
A: 0.0138

Q: And the “increase in dead-cell fraction” value (Flavopiridol [9]; 0.0003162 µM)?
A: 0.0542

Q: And the “increase in dead-cell fraction” value (Flavopiridol [9]; 0.001 µM)?
A: 0.0183

Q: And the “increase in dead-cell fraction” value (Flavopiridol [9]; 0.003162 µM)?
A: -0.0158

Q: And the “increase in dead-cell fraction” value (Flavopiridol [9]; 0.01 µM)?
A: 0.0161

Q: What about the “increase in dead-cell fraction” value (Flavopiridol [9]; 0.03162 µM) of the same cell line?
A: 0.0472

Q: And the “increase in dead-cell fraction” value (Flavopiridol [9]; 0.1 µM)?
A: 0.021

Q: And the “increase in dead-cell fraction” value (Flavopiridol [9]; 0.3162 µM)?
A: -0.002

Q: What about the “increase in dead-cell fraction” value (Flavopiridol [9]; 1 µM) of the same cell line?
A: 0.117
